Source: BindingDB's records for doi:10.3109/14756369809035823 (Orstom, 1998)
Where “and” joins values, the source holds several entries; their conditions need not be identical. Identical values can stand only once.

target: Trypanothione reductase (Crithidia fasciculata, UniProt P39040); experiment: Inhibition Assay; settings: pH 7.8; 25 °C
Source text: Crithidia fasciculata trypanothione reductase (cfTR) was purifed from E.coli using the expression system. The activity of the cfTR was observed from the rate of oxidation of the co-substrate NADPH to NADP+ as measured by a decrease in absorbance at 340nm.

Chain of Trypanothione reductase (P39040 whole entry): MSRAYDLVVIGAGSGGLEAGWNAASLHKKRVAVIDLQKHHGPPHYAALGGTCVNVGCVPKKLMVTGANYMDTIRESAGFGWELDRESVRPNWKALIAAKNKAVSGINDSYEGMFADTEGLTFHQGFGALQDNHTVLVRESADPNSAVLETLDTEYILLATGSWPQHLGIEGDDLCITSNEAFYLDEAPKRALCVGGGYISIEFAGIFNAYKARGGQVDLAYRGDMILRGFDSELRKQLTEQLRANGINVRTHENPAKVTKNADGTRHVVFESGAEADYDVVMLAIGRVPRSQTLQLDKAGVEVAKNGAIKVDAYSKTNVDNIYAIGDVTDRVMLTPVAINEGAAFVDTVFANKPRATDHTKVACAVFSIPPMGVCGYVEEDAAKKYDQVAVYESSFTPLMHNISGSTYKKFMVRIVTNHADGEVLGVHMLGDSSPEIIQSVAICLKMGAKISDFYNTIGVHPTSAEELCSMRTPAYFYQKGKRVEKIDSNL

SMILES | IC50
COc1ccc2cc1Oc1ccc(cc1)C[C@H]1c3c(cc(OC)c(O)c3Oc3cc4c(cc3OC)CCN(C)[C@@H]4C2)CCN1C | 55 µM
COc1cc2c3cc1Oc1c(O)c(OC)cc4c1[C@H](Cc1ccc(OC)c(c1)-c1cc(ccc1O)C[C@H]3N(C)CC2)N(C)CC4 | 60 µM
COc1ccc2cc1Oc1ccc(cc1)C[C@H]1c3cc(c(OC)cc3CCN1C)Oc1c(OC)c(OC)cc3c1[C@@H](C2)N(C)CC3 | 122 µM and 235 µM
COc1cc2c3cc1Oc1c(O)c(OC)cc4c1[C@H](Cc1ccc(cc1)Oc1cc(ccc1O)C[C@H]3NCC2)N(C)CC4 (racemic) [Daphnoline (R,S)] | 50 µM
COc1cc2c3cc1Oc1cc(ccc1O)C[C@@H]1c4c(cc(OC)c(O)c4Oc4ccc(cc4)C[C@H]3N(C)CC2)CCN1C [(-)-BEBEERINE] | 60 µM
COc1ccc2cc1Oc1ccc(cc1)C[C@H]1c3c(cc4c(c3Oc3cc5c(cc3OC)CCN(C)[C@H]5C2)OCO4)CCN1C [Cepharanthine] | 15 µM
COc1cc2c3c(c1OC)Oc1ccc(cc1)C[C@@H]1c4c(cc(OC)c(OC)c4Oc4ccc(cc4)C[C@H]3N(C)CC2)CCN1C [Cycleanine (R,R)] | 303 µM
COc1ccc2cc1Oc1ccc(cc1)C[C@H]1c3c(cc(O)c(OC)c3Oc3cc4c(cc3OC)CCN(C)[C@@H]4C2)CCN1C [Gyrocarpine (S,R)] | 58 µM
COc1ccc2cc1Oc1ccc(cc1)C[C@H]1c3cc(c(OC)cc3CCN1C)Oc1c(O)c(OC)cc3c1[C@@H](C2)N(C)CC3 [Limacine (R,R)] | 90 µM
COc1cc2c(cc1O)[C@@H](Cc1ccc(Oc3cc(C[C@H]4NCCc5cc(OC)c(O)cc54)ccc3O)cc1)NCC2 [Lindoldhamine (R,R)] | 27 µM
